The record followed here is patent publication US11149018B2, “Substituted N-arylethyl-2-aminoquinoline-4-carboxamides and use thereof” (Bayer Aktiengesellschaft, priority 2017, dated 2021).

pIC50: −log10 of the molar value.

Usually pIC50 stands for the negative decadic logarithm of the IC50, by convention in mol/L.

FP receptor, sequence (P43088 whole entry): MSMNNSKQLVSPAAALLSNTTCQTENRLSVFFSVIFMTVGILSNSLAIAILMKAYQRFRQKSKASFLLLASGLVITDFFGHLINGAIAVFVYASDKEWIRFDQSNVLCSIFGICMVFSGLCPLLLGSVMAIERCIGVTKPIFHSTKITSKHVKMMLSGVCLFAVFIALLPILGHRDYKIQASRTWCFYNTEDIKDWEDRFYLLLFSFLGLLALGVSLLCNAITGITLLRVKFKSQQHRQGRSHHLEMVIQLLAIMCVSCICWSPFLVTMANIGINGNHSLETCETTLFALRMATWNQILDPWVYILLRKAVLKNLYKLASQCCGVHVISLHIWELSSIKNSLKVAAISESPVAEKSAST

The test deals with FP receptor (Homo sapiens (Human), UniProt P43088). Description: In vitro test of inhibition of human FP receptor activity (PGF2α-induced calcium flux in FP-expressing CHEM1 cells). The note with it: PGF2α 2 nM, some mean values of multiple determinations. It counts as cell-based. As for the experimental part:
B-1. In Vitro Test of Inhibition of Human FP Receptor Activity
For the characterization of test substances in respect of FP antagonism, PGF2α-induced calcium flux in FP-expressing CHEM1 cells (Millipore, HTS093C) was used.
10 μl of the prediluted substance solution are added to the Fluo-8-laden cells and incubated at 37° C., 5% CO2 for 10 minutes. The FP receptor is activated by adding 40 μl of 2 nM (final concentration) PGF2α in calcium-free Tyrode, 2 mM CaCl2, 0.002% SmartBlock, and the calcium flux is determined by measuring the fluorescence at ex. 470 nm/[…].
Table 1 below lists the IC50 values from this assay for individual working examples of the invention (some as mean values from multiple independent individual determinations): […]
As to `Cc1c(N2CC=CCO2)nc2ccc(Br)cc2c1C(=O)NCC(CCC(=O)O)c1ccccc1Cl` (racemic) [Example 77, (+/−)-5-({[6-Bromo-2-(3,6-dihydro-2H-1,2-oxazin-2-yl)-3-methylquinolin-4-yl]carbonyl}amino)-4-(2-chlorophenyl)pentanoic acid], the negative logarithm of the IC50 (pIC50) was 7.18.
For `Cc1c(N2CCc3ccccc3C2)nc2ccc(Br)cc2c1C(=O)NCC(CCC(=O)O)c1ccccc1Cl` (racemic) [Example 84, (+/−)-5-({[6-Bromo-2-(3,4-dihydroisoquinolin-2(1H)-yl)-3-methylquinolin-4-yl]carbonyl}amino)-4-(2-chlorophenyl)pentanoic acid], the pIC50 is 7.55.
The same measure for `Cc1c(N2CC3CCCCC3C2)nc2ccc(Br)cc2c1C(=O)NCC(CCC(=O)O)c1ccccc1Cl` (racemic) [Example 86, (+/−)-5-({[6-Bromo-3-methyl-2-(octahydro-2H-isoindol-2-yl)quinolin-4-yl]carbonyl}amino)-4-(2-chlorophenyl)pentanoic acid]: 6.48; for `Cc1c(N2CCS(=O)(=O)CC2)nc2ccc(Br)cc2c1C(=O)NCC(CCC(=O)O)c1ccccc1Cl` (racemic) [Example 87, (+/−)-5-({[6-Bromo-2-(1,1-dioxidothiomorpholin-4-yl)-3-methylquinolin-4-yl]carbonyl}amino)-4-(2-chlorophenyl)pentanoic acid]: 6.26.
Take `Cc1c(N2CNC(=O)C2)nc2ccc(Br)cc2c1C(=O)NCC(CCC(=O)O)c1ccccc1Cl` (racemic) [Example 88, (+/−)-5-({[6-Bromo-3-methyl-2-(4-oxoimidazolidin-1-yl)quinolin-4-yl]carbonyl}amino)-4-(2-chlorophenyl)pentanoic acid]: the pIC50 is 6.06.
The figure for `Cc1c(N2CCCOCC2)nc2ccc(Br)cc2c1C(=O)NCC(CCC(=O)O)c1ccccc1Cl` (racemic) [Example 90, (+/−)-5-({[6-Bromo-3-methyl-2-(1,4-oxazepan-4-yl)quinolin-4-yl]carbonyl}amino)-4-(2-chlorophenyl)pentanoic acid] is 7.23; for `COC1CN(c2nc3ccc(Br)cc3c(C(=O)NCC(CCC(=O)O)c3ccccc3Cl)c2C)C1` (racemic) [Example 92, (+/−)-5-({[6-Bromo-2-(3-methoxyazetidin-1-yl)-3-methylquinolin-4-yl]carbonyl}amino)-4-(2-chlorophenyl)pentanoic acid] it is 6.41.
With `Cc1c(NCCc2ccccc2)nc2ccc(Br)cc2c1C(=O)NCC(CCC(=O)O)c1ccccc1Cl` (racemic) [Example 94, (+/−)-5-[({6-Bromo-3-methyl-2-[(2-phenylethyl)amino]quinolin-4-yl}carbonyl)amino]-4-(2-chlorophenyl)pentanoic acid], the pIC50 is 7.82.
The same measure for `Cc1c(N(C)CCc2ccccc2)nc2ccc(Br)cc2c1C(=O)NCC(CCC(=O)O)c1ccccc1Cl` (racemic) [Example 95, (+/−)-5-[({6-Bromo-3-methyl-2-[methyl(2-phenylethyl)amino]quinolin-4-yl}carbonyl)amino]-4-(2-chlorophenyl)pentanoic acid]: 7.19.
The same measure for `Cc1c(NCc2ccccc2)nc2ccc(Br)cc2c1C(=O)NCC(CCC(=O)O)c1ccccc1Cl` (racemic) [Example 96, (+/−)-5-({[2-(Benzylamino)-6-bromo-3-methylquinolin-4-yl]carbonyl}amino)-4-(2-chlorophenyl)pentanoic acid]: 6.02.
For the compound `Cc1c(NC2CCC2)nc2ccc(Br)cc2c1C(=O)NCC(CCC(=O)O)c1ccccc1Cl` (racemic) [Example 97, (+/−)-5-({[6-Bromo-2-(cyclobutylamino)-3-methylquinolin-4-yl]carbonyl}amino)-4-(2-chlorophenyl)pentanoic acid], the pIC50 is 6.28.
As for `Cc1c(NCCC(F)(F)F)nc2ccc(Br)cc2c1C(=O)NCC(CCC(=O)O)c1ccccc1Cl` (racemic) [Example 98, (+/−)-5-[({6-Bromo-3-methyl-2-[(3,3,3-trifluoropropyl)amino]quinolin-4-yl}carbonyl)amino]-4-(2-chlorophenyl)pentanoic acid], the pIC50 is 6.28.
The figure for `Cc1c(NCC2CCCCC2)nc2ccc(Br)cc2c1C(=O)NCC(CCC(=O)O)c1ccccc1Cl` (racemic) [Example 99, (+/−)-5-[({6-Bromo-2-[(cyclohexylmethyl)amino]-3-methylquinolin-4-yl}carbonyl)amino]-4-(2-chlorophenyl)pentanoic acid] is 6.30.
`Cc1c(NCC2CC2)nc2ccc(Br)cc2c1C(=O)NCC(CCC(=O)O)c1ccccc1Cl` (racemic) [Example 100, (+/−)-5-[({6-Bromo-2-[(cyclopropylmethyl)amino]-3-methylquinolin-4-yl}carbonyl)amino]-4-(2-chlorophenyl)pentanoic acid]: the pIC50 was 6.47.
The same measure for `CCCCNc1nc2ccc(Br)cc2c(C(=O)NCC(CCC(=O)O)c2ccccc2Cl)c1C` (racemic) [Example 101, (+/−)-5-({[6-Bromo-2-(butylamino)-3-methylquinolin-4-yl]carbonyl}amino)-4-(2-chlorophenyl)pentanoic acid]: 6.35; for `Cc1c(NCC(C)C)nc2ccc(Br)cc2c1C(=O)NCC(CCC(=O)O)c1ccccc1Cl` (racemic) [Example 102, (+/−)-5-({[6-Bromo-2-(isobutylamino)-3-methylquinolin-4-yl]carbonyl}amino)-4-(2-chlorophenyl)pentanoic acid]: 6.60.
The figure for `Cc1c(NC2CCCC2)nc2ccc(Br)cc2c1C(=O)NCC(CCC(=O)O)c1ccccc1Cl` (racemic) [Example 103, (+/−)-5-({[6-Bromo-2-(cyclopentylamino)-3-methylquinolin-4-yl]carbonyl}amino)-4-(2-chlorophenyl)pentanoic acid] is 6.47; for `COCCNc1nc2ccc(Br)cc2c(C(=O)NCC(CCC(=O)O)c2ccccc2Cl)c1C` (racemic) [Example 104, (+/−)-5-[({6-Bromo-2-[(2-methoxyethyl)amino]-3-methylquinolin-4-yl}carbonyl)amino]-4-(2-chlorophenyl)pentanoic acid] it is 6.39; for `CCNc1nc2ccc(Br)cc2c(C(=O)NCC(CCC(=O)O)c2ccccc2Cl)c1C` (racemic) [Example 109, (+/−)-5-({[6-Bromo-2-(ethylamino)-3-methylquinolin-4-yl]carbonyl}amino)-4-(2-chlorophenyl)pentanoic acid] it is 6.07.
With `Cc1c(N2CCCC3(CC3)C2)nc2ccc(Br)cc2c1C(=O)NCC(CCC(=O)O)c1ccccc1Cl` (racemic) [Example 110, (+/−)-5-({[2-(5-Azaspiro[2.5]oct-5-yl)-6-bromo-3-methylquinolin-4-yl]carbonyl}amino)-4-(2-chlorophenyl)pentanoic acid], the negative-log IC50 (pIC50) was 7.62.
The figure for `Cc1c(N2CCCCC2)nc2ccc(Br)cc2c1C(=O)NCC(CCC(=O)O)c1ccccc1C(F)(F)F` (racemic) [Example 111, (+/−)-5-({[6-Bromo-3-methyl-2-(piperidin-1-yl)quinolin-4-yl]carbonyl}amino)-4-[2-(trifluoromethyl)phenyl]pentanoic acid] is 8.19.
